“And” between values parts separate entries of the source, which are not always exact repeats. Equal entries are not always repeated. Where two headings read alike, the source gives them in different places.
Target: AtzT (Pseudomonas sp. (strain ADP), UniProt Q936X6)
Experiment: Surface plasmon resonance (SPR) binding to immobilized AtzT, 1:1 steady-state affinity model
[1] = Biacore S200, CM5 chip, 293 K, HBS-P+ buffer with 2%(v/v) DMSO, mean ± standard deviation (n = 3)

AtzT, sequence (Q936X6 27-360 limits assumed): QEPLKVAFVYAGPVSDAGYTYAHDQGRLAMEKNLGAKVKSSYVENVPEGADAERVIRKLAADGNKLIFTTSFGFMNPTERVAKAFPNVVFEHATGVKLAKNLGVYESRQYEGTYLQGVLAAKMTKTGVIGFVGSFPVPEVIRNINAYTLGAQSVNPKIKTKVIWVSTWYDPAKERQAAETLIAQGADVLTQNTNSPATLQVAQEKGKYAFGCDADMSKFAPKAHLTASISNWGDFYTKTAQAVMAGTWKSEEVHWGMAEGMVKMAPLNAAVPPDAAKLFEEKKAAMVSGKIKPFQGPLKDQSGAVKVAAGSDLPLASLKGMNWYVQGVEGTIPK

SMILES	Kd [1] [µM]	further results
O=C(O)c1c(Br)c(Br)c(C(=O)O)c(Br)c1Br [Tetrabromoterephthalic acid]	> 8000	–
O=C1CC(=O)NC(=O)N1 [Barbaturic acid]	> 8000	–
Nc1nc(N)nc(O)n1 [Ammeline]	0.36 ± 0.02	fold difference in K D between ammeline and ammelide (ammeline vs ammelide): > 250 fold
Nc1nc2nc[nH]c2c(=O)[nH]1 [Guanine]	0.11 ± 0.02	Kd: ~0.11 µM; time in which the majority of the guanine dissociates from AtzT (Supplementary Fig. S4): ~20 s
OB(O)c1ccc(I)cc1 [4-Iodophenylboronic acid]	5000 ± 1000	–
O=c1[nH]c(=O)[nH]c(=O)[nH]1 [Cyanuric acid]	340 ± 30	–
CCNc1nc(Cl)nc(NC(C)C)n1 [Atrazine]	1500 ± 200	Kd: ~1500 µM
Nc1nc(N)nc(N)n1 [Melamine]	> 400	–
CCNc1nc(O)nc(NC(C)C)n1 [2-Hydroxyatrazine]	2.2 ± 0.2	fold tighter binding than atrazine (2-hydroxyatrazine vs atrazine): ~700 fold and > 600 fold
Nc1ncnc2nc[nH]c12 [Adenine]	2.5 ± 0.3	Kd: ~2.5 µM
Nc1cc[nH]c(=O)n1 [Cytosine]	800 ± 90	–
Cc1c[nH]c(=O)[nH]c1=O [Thymine]	620 ± 40	–
Nc1nc2c(ncn2[C@@H]2O[C@H](COP(=O)(O)OP(=O)(O)OP(=O)(O)O)[C@@H](O)[C@H]2O)c(=O)[nH]1 [GTP]	> 8000	–
O=c1cc[nH]c(=O)[nH]1 [Uracil]	1600 ± 300	–
CCC1(CC)C(=O)NC(=O)NC1=O [Barbitone]	> 8000	–

Reference: PMC6834077, “The evolving story of AtzT, a periplasmic binding protein” (Acta Crystallographica. Section D, Structural Biology, 2019)
